Like-named read-outs stand apart in the source and are kept apart here.
How the values were obtained:
Format in all cases: cell-based
human α2C adrenoceptor = molecular target: T1, human α2C adrenoceptor (Homo sapiens, UniProt P18825); test: Inhibition of forskolin stimulated adenylyl cyclase, α2C; details: for Emax: read-out: intrinsic activity (i.a.) α2C
T1 construct: expressed in transfected cells; host or cells: LM(tk-)
T1 sequence (P18825 1-462): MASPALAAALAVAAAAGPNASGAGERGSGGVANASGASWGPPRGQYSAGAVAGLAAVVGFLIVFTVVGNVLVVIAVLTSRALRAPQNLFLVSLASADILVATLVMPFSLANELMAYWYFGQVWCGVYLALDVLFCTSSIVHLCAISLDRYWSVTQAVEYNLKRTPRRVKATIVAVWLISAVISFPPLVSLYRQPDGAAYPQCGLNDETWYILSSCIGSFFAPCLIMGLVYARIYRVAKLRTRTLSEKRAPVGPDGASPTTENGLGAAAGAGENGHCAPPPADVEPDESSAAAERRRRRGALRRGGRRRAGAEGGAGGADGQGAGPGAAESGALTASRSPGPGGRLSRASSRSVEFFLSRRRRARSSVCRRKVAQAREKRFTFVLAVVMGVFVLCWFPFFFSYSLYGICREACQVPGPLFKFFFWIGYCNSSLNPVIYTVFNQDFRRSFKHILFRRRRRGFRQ
Protocol: (§1) α2 -Adrenoceptor-Mediated Inhibition of Forskolin Stimulated Adenylyl Cyclase
(§2) The agonist activity of test compounds was assayed by measuring their ability to inhibit adenylyl cyclase in cells stably transfected with each of the three cloned human α2 -adrenoceptors. LM(tk-) cells expressing the α2A - or the α2C -, as well as Y1 cells expressing the α2B -adrenoceptor were used. […] The formation of cyclic AMP was measured in cultures incubated with DMEM containing 1 mM theophylline. Twelve concentrations of the test compounds (from 10 pM to 100 μM) were added to the incubation medium and incubated at 37° C. for 20 min. Following this incubation step, 10 μM forskolin was added to stimulate the formation of cyclic AMP, and the cultures were incubated for another 10 min. The reaction was stopped by replacing the incubation medium with 100 mM HCl . The intracellular levels of cyclic AMP were measured by radioimmunoassay. The data from concentration-response curves was fitted to a four-parameter logistic equation, by non-linear regression analysis, to determine the pEC50 and intrinsic activity.

human α1B adrenoceptor = molecular target: T2, human α1B adrenoceptor (Homo sapiens, UniProt P35368); test: Phosphoinositide accumulation in cells expressing α1B; details: for Emax: read-out: intrinsic activity (i.a.) α1B; for stimulation of inositol phosphate production, α1B: result in words
T2 construct: The entire coding region of the α1B receptor (1563 bp); expressed in transfected cells
T2 sequence (P35368 1-520): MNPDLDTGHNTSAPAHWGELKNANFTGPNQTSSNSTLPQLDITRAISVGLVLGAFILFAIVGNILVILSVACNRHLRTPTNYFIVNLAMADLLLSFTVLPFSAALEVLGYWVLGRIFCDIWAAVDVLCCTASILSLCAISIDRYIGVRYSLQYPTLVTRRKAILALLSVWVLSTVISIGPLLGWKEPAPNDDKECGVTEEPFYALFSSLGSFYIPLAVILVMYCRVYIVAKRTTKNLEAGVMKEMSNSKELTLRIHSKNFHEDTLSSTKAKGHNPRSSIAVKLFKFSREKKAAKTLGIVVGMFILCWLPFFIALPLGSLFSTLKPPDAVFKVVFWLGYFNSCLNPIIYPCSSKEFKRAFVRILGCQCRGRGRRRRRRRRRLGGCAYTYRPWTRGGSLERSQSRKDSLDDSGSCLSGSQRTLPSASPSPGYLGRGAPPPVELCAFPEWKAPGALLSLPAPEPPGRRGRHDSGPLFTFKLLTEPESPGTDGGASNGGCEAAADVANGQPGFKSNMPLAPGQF
Protocol: α1 -Adrenoceptor-Mediated Phosphoinositide Accumulation in Cultured Cell Lines
The agonist activity of test compounds was assayed by measuring their ability to generate phosphoinositide production in cells stably transfected with each of the three cloned human α1 -adrenoceptor subtypes. Cells were plated in 96-well plates and grown to confluence. The day before the assay the growth medium was changed to 100 μl of medium containing 1% serum and 0.5 μCi [^3 H] myo-inositol, and the plates were incubated overnight in a CO2 incubator (5% CO2 at 37° C.). Immediately before the assay, the medium was removed and replaced by 200 μl of PBS containing 10 mM LiCl, and the cells were equilibrated with the new medium for 20 min. During this interval cells were also equilibrated with the antagonist, added as 10 μl aliquot of a 20-fold concentrated solution in PBS.
The [^3 H] inositol-phosphate (IP) accumulation was started by adding 10 μl of a solution containing the agonist. To the first well 10 μl were added to measure basal accumulation, and 11 different concentrations of agonist were assayed in the following 11 wells of each plate row. All assays were performed in duplicate by repeating the same additions in two consecutive plate rows. The plates were incubated in a CO2 incubator for 1 hr. The reaction was terminated by adding 15 μl of 50% (v/v) trichloroacetic acid (TCA), followed by a 40 min incubation at 4° C.
After neutralizing TCA with 40 μl of 1 M Tris, the content of the wells was transferred to a Multiscreen HV filter plate (Millipore) containing Dowex AG1-X8 (200-400 mesh, formate form). The filter plates were prepared adding 200 μl of Dowex AG1-X8 suspension (50% v/v, water:resin) to each well. The filter plates were placed on a vacuum manifold to wash or eluted the resin bed. Each well was washed 2 times with 200 μl of water, followed by 2×200 μ of 5 mM sodium tetraborate/60 mM ammonium formate. The [3H] IPs were eluted into empty 96-well plates with 200 μl of 1.2 M ammonium formate/0.1 formic acid. The content of the wells was added to 3 mls of scintillation cocktail, and the radioactivity was determined by liquid scintillation counting.

human α2B adrenoceptor = molecular target: T3, human α2B adrenoceptor (Homo sapiens, UniProt P18089); test: Inhibition of forskolin stimulated adenylyl cyclase, α2B; set-up: expressed in transfected cells; host or cells: Y1 cells, line Ya2B-2 (ATCC CRL 11888); details: for Emax: read-out: intrinsic activity (i.a.) α2B
T3 sequence (P18089 1-450): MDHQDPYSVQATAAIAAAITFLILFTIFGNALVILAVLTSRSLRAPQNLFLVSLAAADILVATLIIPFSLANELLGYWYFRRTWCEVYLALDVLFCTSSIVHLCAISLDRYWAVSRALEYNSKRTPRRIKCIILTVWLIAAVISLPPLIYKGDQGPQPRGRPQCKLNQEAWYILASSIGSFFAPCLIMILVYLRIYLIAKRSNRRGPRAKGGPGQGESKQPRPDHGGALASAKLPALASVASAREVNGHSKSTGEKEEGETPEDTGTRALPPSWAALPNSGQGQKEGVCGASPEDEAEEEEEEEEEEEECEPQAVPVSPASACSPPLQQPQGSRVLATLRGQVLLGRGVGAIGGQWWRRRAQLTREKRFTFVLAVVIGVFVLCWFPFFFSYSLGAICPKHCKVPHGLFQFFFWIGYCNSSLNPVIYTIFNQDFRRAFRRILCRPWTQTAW
Protocol: as §1, §2

[1] = agonist, inhibition of forskolin stimulated adenylyl cyclase, read-out: pEC50 α2C (converted)
[2] = relative to reference full agonist (e.g., norepinephrine = unity)
[3] = agonist, inhibition of forskolin stimulated adenylyl cyclase, read-out: pEC50 α2B (converted)

Row | Compound | Emax (human α2C adrenoceptor) | Emax (human α1B adrenoceptor) | stimulation of inositol phosphate production, α1B (human α1B adrenoceptor) | Emax (human α2B adrenoceptor) | EC50 (human α2C adrenoceptor; [1]) | Emax (human α2C adrenoceptor; [2]) | EC50 (human α1B adrenoceptor) | Emax (human α1B adrenoceptor; [2]) | EC50 (human α2B adrenoceptor; [3]) | Emax (human α2B adrenoceptor; [2]) | EC50 (human α2C adrenoceptor) | EC50 (human α2B adrenoceptor) | intrinsic activity (i.a.) α2C (human α2C adrenoceptor; [2]) | intrinsic activity (i.a.) α2B (human α2B adrenoceptor; [2]) | EC50 (human α1B adrenoceptor; agonist, phosphoinositide accumulation, read-out: pEC50 α1B (converted))
1 | CNCCc1ccc(O)c(NS(C)(=O)=O)c1 [SK&F 102652] | 80% | 10% | virtually inactive | 90% | – | – | – | – | – | – | – | – | – | – | –
2 | CS(=O)(=O)Nc1c(O)ccc2c1CCCC2C1=NCCN1 (racemic) [Compound A-61603, (±)-N-[5-(4,5-Dihydro-1H-imidazol-2-yl)-2-hydroxy-5,6,7,8-tetra-hydronaphthalen-1-yl]methanesulfonamide] | – | – | virtually inactive | – | 20 nM | 90% | 39800 nM | 10% | 79.4 nM | 80% | – | – | – | – | –
3 | COc1ccc(OC)c(C(O)CN)c1 (racemic) [ST-1059, (±)-2-Amino-1-(2, 5 dimethoxyphenyl) ethanol] | 50% | 10% | – | 60% | – | – | 6310 nM | – | – | – | 501 nM | 2.51 nM | – | – | –
4 | C[C@H](N)[C@H](O)c1ccccc1 [(-)-norephedrine] | 60% | 0% | – | 50% | – | – | 31600 nM | – | – | – | 126 nM | 794 nM | – | – | –
5 | CN[C@@H](C)[C@H](O)c1ccccc1 [(-)-ephedrine] | 0% | 20% | – | 40% | – | – | 100000 nM | – | – | – | 10000 nM | 251 nM | – | – | –
6 | CNC[C@H](O)c1cccc(O)c1 [(-)-phenylephrine] | – | – | – | – | – | – | – | 90% | – | – | – | – | 0.9 | 0.8 | –
7 | COc1ccc(SC)c2c1C[C@@H]1[C@@H](C2)OCCN1C (relative stereo) [SDZ NVI-085, (±)-trans-4-Methyl-6-methoxy-9-thiomethoxy-3,4,4a, 5,10,10a-hexahydro-2H-naphtho[2,3-b][1,4]oxazine] | 0% | 0% | – | 0% | > 100000 nM | – | – | – | > 100000 nM | – | – | – | – | – | > 100000 nM

From patent US5610174A, “Use of α1A -selective adrenoceptor agonists for the treatment of urinary incontinence” (priority 1995, dated 1997)
